Measurements taken from patent US5026858A, “Piperidine derivative” (Walton S.A., priority 1976, dated 1991).
Counter-ions that a name gives are not always drawn. Like-named read-outs stand apart in the source and are kept apart here.

Assays:
[1] = molecular target: T1, [3H]haloperidol binding, rat striatal membranes (Rattus norvegicus, UniProt P61169); test: displacement of [3H]haloperidol from rat striatal membranes; settings: Table 1, read-out: Displacement [3H]Haloperidol striatum: approximate KI
T1 construct: striatal and limbic forebrain membranes; from tissue; host or cells: rat striatal membranes
T1 sequence (P61169 whole entry): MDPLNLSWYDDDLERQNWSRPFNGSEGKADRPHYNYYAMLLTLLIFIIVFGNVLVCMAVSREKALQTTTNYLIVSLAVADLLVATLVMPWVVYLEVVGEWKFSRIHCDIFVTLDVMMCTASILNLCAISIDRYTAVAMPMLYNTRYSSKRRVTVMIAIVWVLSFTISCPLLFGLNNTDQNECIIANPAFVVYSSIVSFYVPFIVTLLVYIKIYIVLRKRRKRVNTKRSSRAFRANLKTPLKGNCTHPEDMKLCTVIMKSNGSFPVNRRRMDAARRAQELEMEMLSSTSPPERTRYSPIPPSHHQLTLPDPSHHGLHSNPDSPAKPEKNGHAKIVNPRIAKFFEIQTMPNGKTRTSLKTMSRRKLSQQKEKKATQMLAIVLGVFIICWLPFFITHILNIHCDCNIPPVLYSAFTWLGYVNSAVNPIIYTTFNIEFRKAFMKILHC
Description: (§1) ^(f) Approximate KI (nM) for displacement of [3Hhaloperidol from rat
(§2) striatal and limbic forebrain membranes.

[2] = system: apomorphineinduced gnawing behaviour; test: inhibition of apomorphine-induced gnawing behaviour in the rat (oral); type: in vivo
Description: | ^(b) Approximate oral ED50 value for inhibition of | apomorphineinduced gnawing behaviour in the rat (mg kg^-1) and | ^(b) Approximate oral ED50 value for inhibition of | apomorphineinduced gnawing behaviour in the rat (mg kg^-1) and […]

[3] = molecular target: T2, [3H]haloperidol binding, rat limbic forebrain membranes (Rattus norvegicus, UniProt P61169); test: displacement of [3H]haloperidol from rat limbic forebrain membranes; settings: Table 1, read-out: Displacement [3H]Haloperidol limbic: approximate KI
T2 construct: striatal and limbic forebrain membranes; from tissue; host or cells: rat limbic forebrain membranes
T2 sequence (P61169 whole entry): as above
Description: as §1, §2

[4] = molecular target: T3, dopamine sensitive adenylate cyclase of rat straitum (Rattus norvegicus, UniProt P18901); test: inhibition of dopamine sensitive adenylate cyclase of rat striatum; type: biochemical
T3 construct: adenylate cyclase of rat straitum; from tissue; host or cells: rat striatum
T3 sequence (P18901 whole entry): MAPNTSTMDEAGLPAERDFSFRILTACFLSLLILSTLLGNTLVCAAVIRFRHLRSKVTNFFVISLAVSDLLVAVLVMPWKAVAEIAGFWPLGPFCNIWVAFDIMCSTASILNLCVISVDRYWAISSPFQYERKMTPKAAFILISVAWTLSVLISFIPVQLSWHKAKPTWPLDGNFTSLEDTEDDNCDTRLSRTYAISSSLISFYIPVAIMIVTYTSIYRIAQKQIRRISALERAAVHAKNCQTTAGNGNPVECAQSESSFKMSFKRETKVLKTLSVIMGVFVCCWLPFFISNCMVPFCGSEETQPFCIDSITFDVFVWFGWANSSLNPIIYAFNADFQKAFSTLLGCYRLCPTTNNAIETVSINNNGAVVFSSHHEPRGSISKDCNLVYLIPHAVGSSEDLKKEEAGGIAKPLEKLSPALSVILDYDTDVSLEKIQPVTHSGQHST

[5] = system: apomorphineinduced vomiting; test: inhibition of apomorphine-induced vomiting in the dog (oral); type: in vivo; settings: Canis lupus familiaris
Description: | ^(b) Approximate oral ED50 value for inhibition of | apomorphineinduced gnawing behaviour in the rat (mg kg^-1) and | vomiting in the dog (μg kg^-1) | ^(b) Approximate oral ED50 value for inhibition of | apomorphineinduced gnawing behaviour in the rat (mg kg^-1) and | vomiting in the dog (μg kg^-1)

[6] = approximate ED50, Table 2, read-out: Antiapomorphine rat: approximate oral ED50 for inhibition of apomorphine-induced gnawing
[7] = rat striatum, Table 1, read-out: Dopamine sensitive aden-cyclase: approximate KI
[8] = approximate ED50, Table 2, read-out: Antiapomorphine dog: approximate oral ED50 for inhibition of apomorphine-induced vomiting
[9] = approximate ED50, Table 1, read-out: Anti-apomorphine dog: approximate oral ED50 for inhibition of apomorphine-induced vomiting
[10] = approximate ED50, Table 1, read-out: Anti-apomorphine rat: approximate oral ED50 for inhibition of apomorphine-induced gnawing

| SMILES | ED50 [2, 6] [mg/kg] | ED50 [5, 8] [mg/kg] | ED50 [5, 9] [mg/kg] | ED50 [2, 10] [mg/kg] | also measured |
| --- | --- | --- | --- | --- | --- |
| COc1cc(N)c(Cl)cc1C(=O)NC1CCN(Cc2ccccc2)CC1 [Clebopride hydrochloride, reference compound] | 2.5 | 0.04 | – | – | Ki [1]: 25 nM; Ki [3]: 5 nM; Ki [4, 7]: 5 nM |
| CCOc1cc(N)c([N+](=O)[O-])cc1C(=O)NC1CCN(Cc2ccccc2)CC1 [EtO, NH2, NO2, H, phenyl, H, H, H, --, N-(1-benzylpiperid-4-yl)-2-ethoxy-4-amino-5-nitrobenzamide] | – | – | < 0.05 | – | – |
| COc1cc(N)c([N+](=O)[O-])cc1C(=O)NC1CCN(Cc2ccccc2)CC1 [MeO, NH2, NO2, H, phenyl, H, H, H, --, N-(1-Benzylpiperid-4-yl)-2-methoxy-4-amino-5-nitrobenzamide] | – | – | < 0.05 | 140 | Ki [1]: 20 nM; Ki [3]: 1 nM; Ki [4, 7]: 5 nM |
| COc1cc(N)c([N+](=O)[O-])cc1C(=O)NC1CCN(CCc2ccccc2)CC1 [MeO, NH2, NO2, H, phenyl, H, H, H, CH2, N-(1-phenethylpiperid-4-yl)-2-methoxy-4-amino-5-nitrobenzamide] | – | – | > 5 | 800 | Ki [1]: 10 nM; Ki [3]: 1 nM; Ki [4, 7]: 1 nM |
| CCN(CC)CCNC(=O)c1cc(Cl)c(N)cc1OC [Metoclopramide, reference compound] | – | – | 0.45 | 13.6 | Ki [4]: 60 nM |
| COc1cc(N)c([N+](=O)[O-])cc1C(=O)NC1CCN(Cc2ccc(Cl)cc2)CC1 [N-(1-p-chlorobenzylpiperid-4-yl)-2-methoxy-4-amino-5-nitrobenzamide] | – | – | < 0.05 | – | – |
| COc1cc(N)c([N+](=O)[O-])cc1C(=O)NC1CCN(Cc2ccc(C)cc2)CC1 [N-(1-p-methylbenzylpiperid-4-yl)-2-methoxy-4-amino-5-nitrobenzamide] | – | – | < 0.05 | – | – |
| CCN1CCCC1CNC(=O)c1cc(S(N)(=O)=O)ccc1OC (stereo not drawn) [Sulpiride, reference compound] | – | – | 0.141 | > 800 | – |
| COc1cc(N)c([N+](=O)[O-])cc1C(=O)NC1CCN(CC2=CCC=CC2)CC1 [compound 2, N-(1-Cyclohexa-1',4'-dienylmethylpiperid-4-yl)-2-methoxy-4-amino-5-nitrobenzamide] | 60 | < 0.05 | – | – | – |
| COc1cc(N)c([N+](=O)[O-])cc1C(=O)NC1CCN(CCC2=CCC=CC2)CC1 [compound 3, N-[1-(2-cyclohexa-1',4'-dienylethyl)piperid-4-yl]-2-methoxy-4-amino-5-nitrobenzamide] | > 300 | > 0.5 | – | – | – |
| CCOc1cc(N)c([N+](=O)[O-])cc1C(=O)NC1CCN(CC2=CCC=CC2)CC1 [compound 4, N-(1-cyclohexa-1',4'-dienylmethylpiperid-4-yl)-2-ethoxy-4-amino-5-nitrobenzamide] | 50 | < 0.05 | – | – | – |
| CCOc1cc(N)c([N+](=O)[O-])cc1C(=O)NC1CCN(CC2=CCC(C)=CC2)CC1 [compound 5, N-[1-(4-methylcyclohexa-1,4-dienyl)methylpiperid-4-yl]-2-ethoxy-4-amino-5-nitrobenzamide] | 40 | < 0.05 | – | – | – |
| COc1cc(N)c([N+](=O)[O-])cc1C(=O)NC1CCN(CC2=CCC(C)=CC2)CC1 [compound 6, N-[1-(4-methylcyclohexa-1,4-dienyl)methylpiperid-4-yl]-2-methoxy-4-amino-5-nitrobenzamide] | 35 | < 0.05 | – | – | – |
